PubChem BioAssay AID2060617 (Molecular Pharmacology Branch, DTP, NCI, 2025)
pIC50: −log10 of the molar value.

System: 485368-065-R4-J2-PDC spheroids with HUVEC/MSC, viability
Assay: Anticancer human tumor 485368-065-R4-J2-PDC patient-derived pancreatic carcinoma cell line growth inhibition [CLK]
Settings: for pIC50: curve of first compound; for viability, T/C: stronger effect = lower value
Text: A high-throughput screen of multi-cell type tumor spheroids was designed to identify active combinations of […] and targeted small molecules. Complex spheroids include a stromal component modeled by human endothelial cells (HUVEC) and fibroblasts modeled by human mesenchymal stem cells (MSCs). The concentration ranges selected for each drug and investigational agent were based upon clinically achievable concentrations if the clinical Cmax of the agent was known.
Compounds. The drugs and investigational agents: cirtuvivint (SM08502; NSC835563), CC-671 (NSC850746), vemurafenib (NSC761431), tapotoclax (NSC804041), sotorasib (NSC818433), adagrasib (NSC831453), MRTX-1133 (NSC836407), BAY2416964 (NSC825713), copanlisib (NSC816437), inavolisib (NSC800729), abemaciclib (NSC768073), osimertinib (NSC779217), entinostat (NSC756642), eltanexor (KPT-8602, NSC794443), venetoclax (NSC766270), ceralasertib (NSC777638), bortezomib (NSC756655), olaparib (NSC753686), talazoparib (NSC767125), alisertib (NSC759677), peposertib (NSC802822), gemcitabine (NSC613327), 5-fluorouracil (NSC19893), SN-38 (NSC673596), oxaliplatin (NSC266046), paclitaxel (NSC125973), and doxorubicin (NSC123127), were obtained from the National Cancer Institute (NCI) Developmental Therapeutics Program Chemical Repository. The FDA-approved anticancer drug set is available from the Developmental Therapeutics Program at https://dtp.cancer.gov/organization/dscb/obtaining/available plates.htm. […] The stock solutions were prepared in dimethyl sulfoxide (DMSO, Sigma-Aldrich, St. Louis, MO, cat. D2650), except for the platinum complexes which were prepared in saline (Quality Biological, Gaithersburg, MD, cat. 114-055-101), at 800-fold the tested concentration and stored at -70 degrees C prior to their use. All drugs and investigational agents were tested over a range starting from a high concentration at or near the clinical Cmax and decreasing in half-log increments. If the clinical Cmax for an agent had not been determined, the highest concentration tested was 10 microM.
Cell Culture. All cells were maintained in an incubator at 37 degrees C and 5% CO2 with 95% humidity. The PDC lines were cultured according to standard operating procedures established by the NCI PDMR. Briefly, all PDCs were thawed and cultured in Matrigel-coated flasks prepared with a working solution of 1X Ham's F-12 nutrient mix, without supplementation (Invitrogen, Waltham, MA, cat. 11765054), 100 U/mL penicillin-streptomycin (Invitrogen, cat. 15140122), and 2.5% Matrigel (Corning Inc., Corning, NY, cat. 354248) for the first three passages. The 947758-054-R-J2-PDC line was cultured in 6B/Colon 1A media, which includes advanced DMEM/F-12 (Thermo Fisher Scientific, cat. 12634028), 10 mM HEPES (Thermo Fisher Scientific, cat. 15630080), 1X GlutaMAX supplement (Thermo Fisher Scientific, cat. 35050061), 0.1 mg/mL primocin (InvivoGen, cat. ant-pm-2), 10% defined fetal bovine serum, heat inactivated (HyClone Laboratories Inc., cat. SH30070.03HI), 1.25 mM N-Acetyl-L-cysteine (Sigma-Aldrich, cat. A9165), 10 mM nicotinamide (Sigma-Aldrich, cat. N0636), 1X B-27 supplement (Thermo Fisher Scientific, cat. 17504044), 1X N-2 supplement (Thermo Fisher Scientific, cat. 17502048), and 10 microM Y-27632 dihydrochloride (Tocris Bioscience, cat. 1254). The 876862-298-R-J1-PDC was cultured in 6E media, which includes all 6B/Colon 1A media components plus 50% L-WRN conditioned media (ATCC, cat. CRL-3276), 50 ng/mL recombinant human EGF recombinant protein (hEGF; Thermo Fisher Scientific, cat. PHG0311), 10 ng/mL recombinant human fibroblast growth factor 10 (hGFG-10; PeproTech, cat. 100-26), 1 ng/mL recombinant human fibroblast growth factor 2 (hFGF-2; PeproTech, cat. 100-18B), and 1 µM prostaglandin E2 (PGE2; Tocris, cat. 2296). The 227483-062-R1-J1-PDC line was cultured in Panc media, containing all 6E components except hFGF-2, with the addition of 500 nM SB-431542 (Selleckchem, cat. S1067) and 10 nM gastrin (Tocris, cat. 3006). […]

[1] = second compound 0.0316 µM, first compound 0.0316 µM
[2] = second compound 0.0316 µM, first compound 0.1 µM
[3] = second compound 0.0316 µM, first compound 0.316 µM
[4] = second compound 0.0316 µM, first compound 1 µM
[5] = second compound 0.1 µM, first compound 0.0316 µM
[6] = second compound 0.1 µM, first compound 0.1 µM
[7] = second compound 0.1 µM, first compound 0.316 µM
[8] = second compound 0.1 µM, first compound 1 µM
[9] = second compound 0.316 µM, first compound 0.0316 µM
[10] = second compound 0.316 µM, first compound 0.1 µM
[11] = second compound 0.316 µM, first compound 0.316 µM
[12] = second compound 0.316 µM, first compound 1 µM
[13] = second compound 1 µM, first compound 0.0316 µM
[14] = second compound 1 µM, first compound 0.1 µM
[15] = second compound 1 µM, first compound 0.316 µM
[16] = second compound 1 µM, first compound 1 µM
[17] = second compound 3.16 µM, first compound 0.0316 µM
[18] = second compound 3.16 µM, first compound 0.1 µM
[19] = second compound 3.16 µM, first compound 0.316 µM
[20] = second compound 3.16 µM, first compound 1 µM
[21] = second compound 10 µM, first compound 0.0316 µM
[22] = second compound 10 µM, first compound 0.1 µM
[23] = second compound 10 µM, first compound 0.316 µM
[24] = second compound 10 µM, first compound 1 µM
[25] = second compound 0.0316 µM, first compound 0.00316 µM
[26] = second compound 0.0316 µM, first compound 0.01 µM
[27] = second compound 0.1 µM, first compound 0.00316 µM
[28] = second compound 0.1 µM, first compound 0.01 µM
[29] = second compound 0.316 µM, first compound 0.00316 µM
[30] = second compound 0.316 µM, first compound 0.01 µM
[31] = second compound 1 µM, first compound 0.00316 µM
[32] = second compound 1 µM, first compound 0.01 µM
[33] = second compound 3.16 µM, first compound 0.00316 µM
[34] = second compound 3.16 µM, first compound 0.01 µM
[35] = second compound 10 µM, first compound 0.00316 µM
[36] = second compound 10 µM, first compound 0.01 µM
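Further: spheroids exposed to compounds for seven days.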
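Wherever viability, T/C is given: 100% = DMSO vehicle control wells.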

With CC(Nc1ccc2c(c1)OCCn1cc(N3C(=O)OCC3C(F)F)nc1-2)C(N)=O (stereo unspecified) + CN1CCN(c2cc(C(=O)Nc3cc4cc(-c5cnn(C)c5)ccc4cn3)ccn2)CC1 the pIC50 (second compound 0.0316 µM) was less than 5.00, the pIC50 (second compound 0.1 µM) was less than 5.00 and the pIC50 (second compound 0.316 µM) was 6.80. The pIC50 (second compound 1 µM) was greater than 7.50, the pIC50 (second compound 3.16 µM) was greater than 7.50 and the pIC50 (second compound 10 µM) was greater than 7.50. It also gave a viability, T/C [1] of 92.4%, a viability, T/C [2] of 109% and a viability, T/C [3] of 103%. For the same compound, the viability, T/C [4] was 83.3%, the viability, T/C (second compound 0.0316 µM, first compound 3.16 µM) was 78.8% and the viability, T/C (second compound 0.0316 µM, first compound 10 µM) was 62.3%. It also gave a viability, T/C [5] of 98.7%, a viability, T/C [6] of 95.5% and a viability, T/C [7] of 93%. For the same compound, the viability, T/C [8] was 68.8%, the viability, T/C (second compound 0.1 µM, first compound 3.16 µM) was 58.6% and the viability, T/C (second compound 0.1 µM, first compound 10 µM) was 53.4%. It also gave a viability, T/C [9] of 68.9%, a viability, T/C [10] of 55.8% and a viability, T/C [11] of 41.9%. It also gave a viability, T/C [12] of 30.3%, a viability, T/C (second compound 0.316 µM, first compound 3.16 µM) of 27.2% and a viability, T/C (second compound 0.316 µM, first compound 10 µM) of 20.7%. For the same compound, the viability, T/C [13] was 1.25%, the viability, T/C [14] was 1.05% and the viability, T/C [15] was 0.92%. It also gave a viability, T/C [16] of 0.74%, a viability, T/C (second compound 1 µM, first compound 3.16 µM) of 1.65% and a viability, T/C (second compound 1 µM, first compound 10 µM) of 1.84%. The viability, T/C [17] was 2.26%, the viability, T/C [18] was 1.12% and the viability, T/C [19] was 3.5%. For the same compound, the viability, T/C [20] was 2.02%, the viability, T/C (second compound 3.16 µM, first compound 3.16 µM) was 2.42% and the viability, T/C (second compound 3.16 µM, first compound 10 µM) was 2.95%. It also gave a viability, T/C [21] of 1.54%, a viability, T/C [22] of 2.13% and a viability, T/C [23] of 2.05%. For the same compound, the viability, T/C [24] was 2.62%, the viability, T/C (second compound 10 µM, first compound 3.16 µM) was 2.43% and the viability, T/C (second compound 10 µM, first compound 10 µM) was 2.04%.
CCN1CCN(Cc2ccc(Nc3ncc(F)c(-c4cc(F)c5nc(C)n(C(C)C)c5c4)n3)nc2)CC1 + CN1CCN(c2cc(C(=O)Nc3cc4cc(-c5cnn(C)c5)ccc4cn3)ccn2)CC1 was tested, and the pIC50 (second compound 0.0316 µM) was less than 6.00, the pIC50 (second compound 0.1 µM) was less than 6.00 and the pIC50 (second compound 0.316 µM) was less than 6.00. It also gave a pIC50 (second compound 1 µM) greater than 8.50, a pIC50 (second compound 3.16 µM) greater than 8.50 and a pIC50 (second compound 10 µM) greater than 8.50. The viability, T/C [25] was 94.5%, the viability, T/C [26] was 116% and the viability, T/C [1] was 110%. For the same compound, the viability, T/C [2] was 138%, the viability, T/C [3] was 132% and the viability, T/C [4] was 120%. For the same compound, the viability, T/C [27] was 103%, the viability, T/C [28] was 112% and the viability, T/C [5] was 113%. For the same compound, the viability, T/C [6] was 113%, the viability, T/C [7] was 126% and the viability, T/C [8] was 109%. For the same compound, the viability, T/C [29] was 79%, the viability, T/C [30] was 76.1% and the viability, T/C [9] was 79.3%. For the same compound, the viability, T/C [10] was 78.9%, the viability, T/C [11] was 66.8% and the viability, T/C [12] was 60.7%. It also gave a viability, T/C [31] of 0.99%, a viability, T/C [32] of 0.79% and a viability, T/C [13] of 1.5%. It also gave a viability, T/C [14] of 1.72%, a viability, T/C [15] of 3.79% and a viability, T/C [16] of 6.61%. For the same compound, the viability, T/C [33] was 1.45%, the viability, T/C [34] was 1.98% and the viability, T/C [17] was 1.44%. It also gave a viability, T/C [18] of 3.25%, a viability, T/C [19] of 3.87% and a viability, T/C [20] of 6.47%. For the same compound, the viability, T/C [35] was 1.45%, the viability, T/C [36] was 1.41% and the viability, T/C [21] was 2.59%. The viability, T/C [22] was 1.89%, the viability, T/C [23] was 2.62% and the viability, T/C [24] was 3.7%.
Work on COc1c(OCCCN2CCOCC2)ccc2c3n(c(=NC(=O)c4cnc(N)nc4)nc12)CCN3 + CN1CCN(c2cc(C(=O)Nc3cc4cc(-c5cnn(C)c5)ccc4cn3)ccn2)CC1 yielded a pIC50 (second compound 0.0316 µM) of 6.61, a pIC50 (second compound 0.1 µM) of 6.93 and a pIC50 (second compound 0.316 µM) of 7.66. The pIC50 (second compound 1 µM) was greater than 8.50, the pIC50 (second compound 3.16 µM) was greater than 8.50 and the pIC50 (second compound 10 µM) was greater than 8.50. For the same compound, the viability, T/C [25] was 102%, the viability, T/C [26] was 113% and the viability, T/C [1] was 85.8%. The viability, T/C [2] was 71.3%, the viability, T/C [3] was 42% and the viability, T/C [4] was 37.8%. For the same compound, the viability, T/C [27] was 93.7%, the viability, T/C [28] was 99.9% and the viability, T/C [5] was 82.7%. The viability, T/C [6] was 53.7%, the viability, T/C [7] was 32.4% and the viability, T/C [8] was 33.2%. For the same compound, the viability, T/C [29] was 69.4%, the viability, T/C [30] was 61.1% and the viability, T/C [9] was 45.1%. For the same compound, the viability, T/C [10] was 22.4%, the viability, T/C [11] was 16.4% and the viability, T/C [12] was 22.5%. It also gave a viability, T/C [31] of 2.4%, a viability, T/C [32] of 1.65% and a viability, T/C [13] of 1.92%. For the same compound, the viability, T/C [14] was 0.96%, the viability, T/C [15] was 1.07% and the viability, T/C [16] was 5.51%. For the same compound, the viability, T/C [33] was 1.02%, the viability, T/C [34] was 2.04% and the viability, T/C [17] was 1.56%. The viability, T/C [18] was 1.95%, the viability, T/C [19] was 2.07% and the viability, T/C [20] was 1.38%. For the same compound, the viability, T/C [35] was 1.34%, the viability, T/C [36] was 2.28% and the viability, T/C [21] was 3.18%. It also gave a viability, T/C [22] of 3.27%, a viability, T/C [23] of 2.35% and a viability, T/C [24] of 2%.
